From patent US5508450A, “Benzopyran derivatives” (Ono Pharmaceutical Co., Ltd., priority 1989, dated 1996) come the findings set out here.

pIC50: −log10 of the molar value. Counter-ions that a name gives are not always drawn.

The subject of the first test is Lysozyme (dimer formation with fructose). The experiment in a line: Inhibitory activity on Maillard reaction: formation of lysozyme dimer (lysozyme + fructose, SDS-PAGE, densitometer). Format: biochemical. The following applies: lysozyme 10 mg/ml, fructose 100 mM, 0.2M sodium phosphate buffer pH 7.4, 37° C., 3 days. The procedure:
The inhibitory activity on Maillard reaction of the compounds of the present invention has confirmed by the screening system mentioned below. Lysozyme (10 mg/ml) and fructose (100 mM) were dissolved in 0.2M sodium phosphatic buffer solution (PH 7.4). The solution was incubated at a temperature of 37° C. for 3 days. A given volume of the reaction solution was separated using SDS-PAGE by the electrophoresis. After the electrophoresis, the SDS-PAGE was dyed by 0.2% Coomassie Brilliant Blue R-250 and then the dimer was determined by densitometer. The compounds of the present invention were added before incubation and the inhibitory activity of them against the formation of the dimer was examined in various concentrations and IC50 values were calculated.
Turning to `Cc1c(C)c2c(c(C)c1O)CCC(C)(CCCCCCOc1ccc(NC(=N)N)cc1)O2` (stereo not drawn) [29 (a), 4-guanidinophenyl 6-(6-hydroxy-2,5,7,8-tetramethyl-3,4-dihydro-2H-benzo[1,2-b]pyran-2-yl)-n-hexyl ether hydrochloride], the pIC50 (commonly −log10 of the IC50, conventionally taken in molar units) was 4.70. Same read-out and setting: the same measure for `Cc1c(C)c2c(c(C)c1O)CCC(C)(CCOc1ccc(CCCOc3ccc(NC(=N)N)cc3)cc1)O2` (stereo not drawn) [27 (f), 4-guanidinophenyl 3-[4-[2-(6-hydroxy-2,5,7,8-tetramethyl-3,4-dihydro-2H-benzo[1,2-b]-pyran-2-yl)ethoxy]phenyl]-propyl ether hydrochloride]: 5.25. The same measure, in the same setting: the same measure for `CCOC(=O)c1cc(NC(=N)N)cc(C(=O)Nc2ccc(OCCC3(C)CCc4c(C)c(O)c(C)c(C)c4O3)cc2)c1` (stereo not drawn) [Example 17, N-[4-[2-(6-hydroxy-2,5,7,8-tetramethyl-3,4-dihydro-2H-benzo[1,2-b]pyran-2-yl)ethoxy]phenyl]-3-ethoxycarbonyl-5-guanidinobenzamide hydrochloride]: 4.89; for `Cc1c(C)c2c(c(C)c1O)CCC(C)(CCOc1ccc(CCCNC(=N)NN)cc1)O2` (stereo not drawn) [Example 19, 4-[3-(3-aminoguanidino)propyl]phenyl 2-(6-hydroxy-2,5,7,8-tetramethyl-3,4-dihydro-2H-benzo[1,2-b]pyran-2-yl)ethyl ether hydroiodide]: 4.25; for `Cc1c(C)c2c(c(C)c1O)CCC(C)(CCCCOc1ccc(NC(=N)N)cc1C(F)(F)F)O2` (stereo not drawn) [10 (a), 2-trifluoromethyl-4-guanidinophenyl 4-(6-hydroxy-2,5,7,8-tetramethyl-3,4-dihydro-2H-benzo[1,2-b]-pyran-2-yl)butyl ether hydrochloride]: 4.68. Still for that read-out and setting: next, `Cc1c(C)c2c(c(C)c1O)CCC(C)(CCCCNC(=O)COc1ccc(NC(=N)N)cc1)O2` (stereo not drawn) [22 (a), N-[4-(6-hydroxy-2,5,7,8-tetramethyl-3,4-dihydro-2H-benzo[1,2,-b]pyran-2-yl)butyl]-2-(4-guanidinophenoxy)acetamide hydrochloride]: 3.30; `Cc1c(C)c2c(c(C)c1O)CCC(C)(CCSc1ccc(NC(=O)CSc3ccc(NC(=N)N)cc3)cc1)O2` (stereo not drawn) [7 (t), N-[4-[2-(6-hydroxy-2,5,7,8-tetramethyl-3,4-dihydro-2H-benzo[1,2-b]pyran-2-yl)-ethylthio]phenyl]-4-guanidinophenylthioacetamidehydrochloride]: 4.77; `Cc1c(C)c2c(c(C)c1O)CCC(C)(CCOCCNC(=N)NN)O2` (stereo not drawn) [Example 26, 2-(3-aminoguanidino)ethyl 2-(6-hydroxy-2,5,7,8-tetramethyl-3,4-dihydro-2H-benzo[1,2-b]pyran-2-yl)ethyl ether hydrochloride]: 3.57. `Cc1c(C)c2c(c(C)c1O)CCC(C)(CCSc1ccc(NC(=O)c3ccc(NC(=N)N)cc3)cc1)O2` (stereo not drawn) [7 (h), N-[4-[2-(6-hydroxy-2,5,7,8-tetramethyl-3,4-dihydro-2H-benzo[1,2-b]pyran-2-yl)-ethylthio]phenyl]-4-guanidinobenzamidehydrochloride]: the pIC50 was 4.72.

In the case of “N-[4-[2-(6-hydroxy-2,5,7,8-tetramethyl-3,4-dihydro-2H-benzo[1,2-b]pyran-2-yl)-ethoxy]phenyl]-3-guanidino-cinnamamide hydrochloride [7 (b)]”, the pIC50 is 4.92. Same read-out and setting: the same measure for `Cc1c(C)c2c(c(C)c1O)CCC(C)(CCCCNC(=O)/C=C/c1ccc(NC(=N)N)cc1)O2` (stereo not drawn) [Example 22, N-[4-(6-hydroxy-2,5,7,8-tetramethyl-3,4-dihydro-2H-benzo[1,2-b]pyran-2-yl)butyl]-4-guanidinocinnamamide hydrochloride]: 4.32; for `COc1c(O)c(C)c2c(c1OC)OC(C)(CCOC(=O)c1ccc(NC(=N)N)cc1)CC2` (stereo not drawn) [1 (d), 2-(2,5-dimethyl-6-hydroxy-7,8-dimethoxy-3,4-di-hydro-2H-benzo[1,2-b]pyran-2-yl)-ethyl4-quanidinobenzoate hydrochloride]: 3.47. The same measure, in the same setting: next, `Cc1c(C)c2c(c(C)c1O)CCC(C)(CCOc1ccc(NC(=N)N)cc1C(F)(F)F)O2` (stereo not drawn) [5 (b), 2-trifluoromethyl-4-guanidinophenyl 2-(6-hydroxy-2,5,7,8-tetra-methyl-3,4-dihydro-2H-benzo[1,2-b]pyran-2-yl)ethyl ether hydrochloride]: 4.13. Same read-out and setting: next, `Cc1cc(OCCC2(C)CCc3c(C)c(O)c(C)c(C)c3O2)ccc1NC(=O)/C=C/c1ccc(NC(=N)N)cc1` (stereo not drawn) [7 (f), N-[2-methyl-4-[2-(6-hydroxy-2,5,7,8-tetramethyl-3,4-dihydro-2H-benzo[1,2-b]pyran-2-yl)ethoxy]phenyl]-4-guanidinocinnamamidehydrochloride]: 4.74; `Cc1c(C)c2c(c(C)c1O)CCC(C)(CCCCOc1ccc(NC(=N)N)cc1)O2` (stereo not drawn) [Example 10, 4-guanidinophenyl 4-(6-hydroxy-2,5,7,8-tetramethyl-3,4-dihydro-2H-benzo[1,2-b]pyran-2-yl)butyl ether hydrochloride]: 4.12. For the compound `Cc1c(C)c2c(c(C)c1O)CCC(C)(CCOc1ccc(NC(=O)c3ccc(NC(=N)N)cc3)cc1C(F)(F)F)O2` (stereo not drawn) [7 (k), N-[4-[2-(6-hydroxy-2,5,7,8-tetramethyl-3,4-dihydro-2H-benzo[1,2-b]pyran-2-yl)-ethoxy]-3-trifluoromethyl-phenyl]-4-guanidinobenzamidehydrochloride], the pIC50 is 4.92. In the case of `Cc1c(C)c2c(c(C)c1O)CCC(C)(CCCCNC(=N)NN)O2` (stereo not drawn) [Example 8, 1-amino-3-[4-(6-hydroxy-2,5,7,8-tetramethyl-3,4-dihydro-2H-benzo[1,2-b]pyran-2-yl)butyl]guanidine hydroiodide], the pIC50 is 3.52. Regarding `CCOC(=O)c1cc(NC(=N)N)ccc1OCCC1(C)CCc2c(C)c(O)c(C)c(C)c2O1` (stereo not drawn) [Example 15, 2-ethoxycarbonyl-4-guanidinophenyl 2-(6-hydroxy-2,5,7,8-tetramethyl-3,4-dihydro-2H-benzo[1,2-b]pyran-2-yl)ethyl ether hydrochloride], the pIC50 was 3.66.

In the case of `Cc1c(C)c2c(c(C)c1O)CCC(C)(CCOc1ccc(NC(=O)c3cccc(NC(=N)N)c3)cc1C(F)(F)F)O2` (stereo not drawn) [7 (m), N-[4-[2-(6-hydroxy-2,5,7,8-tetramethyl-3,4-dihydro-2H-benzo[1,2-b]pyran-2-yl)-ethoxy]-3-trifluoromethyl-phenyl]-3-guanidinobenzamidehydrochloride], the pIC50 is 4.92.

As for `Cc1c(C)c2c(c(C)c1O)CCC(C)(CCOc1ccc(NC(=N)N)cc1)O2` (stereo not drawn) [Example 5, 4-guanidinophenyl 2-(6-hydroxy-2,5,7,8-tetramethyl-3,4-dihydro-2H-benzo[1,2-b]pyran-2-yl)ethyl ether hydrochloride], the pIC50 is 3.49.

A further test concerns lipid peroxide formation in rat liver homogenate. The experiment in a line: Antioxiding effect: inhibitory activity against formation of peroxidized fat (lipid peroxide by TBA method). The following applies: 200 μM FeCl2, 10% rat liver homogenate, 37° C., 1 hr. Format: biochemical, Male Sprague Dawley rat. On the procedure:
The antioxiding effect of the compounds of the present invention has confirmed by the screening system which examines inhibitory activity against formation of peroxidized fat mentioned below. Male Sprague Dawley rat was fasted for 12 hrs (overnight) before experiments, and was anesthetized with ether. Rat liver was perfused with ice-cold 0.9% NaCl via the portal vein, and promptly excised. 10% Liver homogenates were prepared in ice-cold 1.15% KCl. The reaction was started by adding 200 μM FeCl2 to the liver homogenate ([…]), and incubated at 37° C. for 1 hr. Lipid peroxide was measured by the TBA method according to the method of Ohkawa (See Analytical Biochemistry,95, 351 (1979)). The compounds of the present invention were added before incubation. And the efficacy thereof was examined and calculated IC50 values thereof.
Regarding `Cc1c(C)c2c(c(C)c1O)CCC(C)(CCOC(=O)C1CCC(CNC(=N)N)CC1)O2` (stereo not drawn) [1 (b), 2-(6-hydroxy-2,5,7,8-tetramethyl-3,4-dihydro-2H-benzo[1,2-b]pyran-2-yl)ethyl4-quanidinomethylcyclohexane carboxylatehydrochloride], the pIC50 is 6.11. As to `Cc1c2c(c3ccccc3c1O)OC(C)(CCOC(=O)/C=C/c1ccc(NC(=N)N)cc1)CC2` (stereo not drawn) [1 (l), 2-(2,5-dimethyl-6-hydroxy-3,4-dihydro-2H-naphtho[1,2-b]pyran-2-yl)ethyl 4-quanidinocinnamatehydrochloride], the pIC50 is 6.42. Consider `Cc1c(C)c2c(c(C)c1O)CCC(C)(CCOC(=O)CCc1ccc(NC(=N)N)cc1)O2` (stereo not drawn) [1 (g), 2-(6-hydroxy-2,5,7,8-tetramethyl-3,4-dihydro-2H-benzo[1,2-b]pyran-2-yl)ethyl3-(4-quanidinophenyl)-propionate hydrochloride], for which the pIC50 was 6.05. `Cc1c2c(c3ccccc3c1O)OC(C)(CCOC(=O)c1cccc(NC(=N)N)c1)CC2` (stereo not drawn) [1 (k), 2-(2,5-dimethyl-6-hydroxy-3,4-dihydro-2H-naphtho[1,2-b]pyran-2-yl)ethyl 3-quanidinobenzoatehydrochloride] gave a pIC50 of 6.36. `Cc1c(C)c2c(c(C)c1O)CCC(C)(CCOC(=O)c1ccc(CNC(=N)N)cc1)O2` (stereo not drawn) [Example 1, 2-(6-hydroxy-2,5,7,8-tetramethyl-3,4-dihydro-2H-benzo[1,2-b]pyran-2-yl)ethyl 4-guanidinomethylbenzoate hydrochloride] gave a pIC50 of 6.22. `Cc1c(C)c2c(c(C)c1O)CCC(C)(CCNC(=O)C1CCC(CNC(=N)N)CC1)O2` (stereo not drawn) [2 (a), N-[2-(6-hydroxy-2,4,7,8-tetramethyl-3,4-dihydro-2H-benzo[1,2-b]pyran-2-yl)-ethyl]-4-quanidinomethyl-cyclohexanecarboxamide hydrochloride] had a negative-log IC50 (pIC50) of 6.11. Consider `Cc1c(C)c2c(c(C)c1O)CCC(C)(CCOC(=O)CCCCNC(=N)N)O2` (stereo not drawn) [1 (c), 2-(6-hydroxy-2,5,7,8-tetramethyl-3,4-dihydro-2H-benzo[1,2-b]pyran-2-yl)ethyl5-quanidinopentanoate hydrochloride], for which the pIC50 is 6.10.
